Source: ChEMBL document CHEMBL4387735, “Chemically synthesized LYRM03 could inhibit the metastasis of human breast cancer MDA-MB-231 cells in vitro and in vivo” (Bioorg Med Chem Lett, 2019)
Active and inactive are the calls of the source. The calls are words filed in the database; no cut-off is given here.

How the values were obtained:
[1] = test system: MDA-MB-231; experiment: Cytotoxicity against human MDA-MB-231 cells assessed as reduction in cell viability at 100 ug/ml incubated for 48 hrs by MTT assay; assay type: cell-based; details: mda-mb-231, 48 h
[2] = test system: MDA-MB-231; experiment: Antimetastatic activity against human MDA-MB-231 cells xenografted in SCID mouse assessed as reduction in metastasis foci formation in lungs at 100 mg/kg, ip administered 3 times per week by hematoxylin-eosin staining based assay; assay type: functional, organism-based
[3] = target: Aminopeptidase N (Homo sapiens) (UniProt P15144); details: MDA-MB-231, 50 ug/ml
Sequence of Aminopeptidase N (Homo sapiens) (P15144 whole entry): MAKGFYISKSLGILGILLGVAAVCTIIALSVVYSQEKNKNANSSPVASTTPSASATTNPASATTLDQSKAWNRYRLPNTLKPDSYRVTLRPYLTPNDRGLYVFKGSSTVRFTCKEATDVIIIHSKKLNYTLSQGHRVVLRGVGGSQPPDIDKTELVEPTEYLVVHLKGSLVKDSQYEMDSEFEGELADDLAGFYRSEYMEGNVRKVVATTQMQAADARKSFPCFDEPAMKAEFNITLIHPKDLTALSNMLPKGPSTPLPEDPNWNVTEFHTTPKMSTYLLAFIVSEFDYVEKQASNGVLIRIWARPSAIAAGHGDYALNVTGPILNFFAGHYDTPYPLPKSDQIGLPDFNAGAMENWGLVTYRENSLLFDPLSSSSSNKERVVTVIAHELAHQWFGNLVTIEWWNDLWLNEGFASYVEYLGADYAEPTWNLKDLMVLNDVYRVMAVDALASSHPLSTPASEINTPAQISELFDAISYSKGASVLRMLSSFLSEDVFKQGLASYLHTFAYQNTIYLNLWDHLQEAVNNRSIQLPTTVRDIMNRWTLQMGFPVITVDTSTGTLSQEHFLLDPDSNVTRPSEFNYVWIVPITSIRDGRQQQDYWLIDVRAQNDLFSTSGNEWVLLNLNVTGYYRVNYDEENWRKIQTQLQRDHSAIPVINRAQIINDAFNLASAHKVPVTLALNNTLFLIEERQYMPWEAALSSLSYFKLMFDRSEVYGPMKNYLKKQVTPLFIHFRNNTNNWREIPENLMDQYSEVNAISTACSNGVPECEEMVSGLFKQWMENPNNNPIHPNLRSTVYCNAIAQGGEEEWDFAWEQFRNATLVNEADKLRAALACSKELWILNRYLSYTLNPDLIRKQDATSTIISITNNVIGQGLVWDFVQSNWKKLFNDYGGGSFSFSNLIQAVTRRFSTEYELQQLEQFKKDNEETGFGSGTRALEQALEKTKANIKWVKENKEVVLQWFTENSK
Description: Inhibition of human APN in MDA-MB-231 cells at 50 ug/ml using L-leucine-p-nitroanilide as a substrate incubated for 1 hr by spectrophotometric method relative to control

[4] = test system: MDA-MB-231; experiment: Inhibition of cell migration in human MDA-MB-231 cells incubated upto to 24 hrs by wound healing assay; assay type: functional, cell-based
[5] = test system: MDA-MB-231; experiment: Effect on APN protein expression in human MDA-MB-231 cells at 10 to 100 ug/ml by Western blot analysis; assay type: functional, cell-based
[6] = test system: MDA-MB-231; experiment: Induction of apoptosis in human MDA-MB-231 cells assessed as induction of PARP cleavage at 10 to 100 ug/ml 6 to 48 hrs by Western blot analysis; assay type: functional, cell-based
[7] = test system: MDA-MB-231; experiment: Effect on MMP2 protein expression in human MDA-MB-231 cells; assay type: functional, cell-based
[8] = test system: MDA-MB-231; experiment: Induction of apoptosis in human MDA-MB-231 cells assessed as late apoptotic cells at 100 ug/ml by Annexin V/PI staining based flow cytometric method (reference value: 0.92%); assay type: functional
[9] = test system: MDA-MB-231; experiment: Induction of apoptosis in human MDA-MB-231 cells assessed as necrotic cells at 50 ug/ml by Annexin V/PI staining based flow cytometric method (reference value: 7.79%); assay type: functional
[10] = test system: MDA-MB-231; experiment: Induction of apoptosis in human MDA-MB-231 cells assessed as live cells at 100 ug/ml by Annexin V/PI staining based flow cytometric method (reference value: 90.75%); assay type: functional
[11] = test system: MDA-MB-231; experiment: Cytotoxicity against human MDA-MB-231 cells assessed as reduction in cell viability at 100 ug/ml incubated for 24 to 48 hrs by MTT assay relative to control; assay type: cell-based
[12] = test system: MDA-MB-231; experiment: Antimetastatic activity in human MDA-MB-231 cells assessed as reduction in cell migration at 50 to 100 ug/ml incubated for 24 hrs by transwell assay; assay type: functional, cell-based
[13] = test system: MDA-MB-231; experiment: Effect on MMP9 protein expression in human MDA-MB-231 cells; assay type: functional, cell-based
[14] = test system: MDA-MB-231; experiment: Induction of apoptosis in human MDA-MB-231 cells assessed as necrotic cells at 100 ug/ml by Annexin V/PI staining based flow cytometric method (reference value: 7.79%); assay type: functional
[15] = target: Aminopeptidase N (Homo sapiens) (UniProt P15144); experiment: Inhibition of human APN in MDA-MB-231 cells at >50 ug/ml using L-leucine-p-nitroanilide as a substrate incubated for 1 hr by spectrophotometric method relative to control; assay type: cell-based
[16] = test system: MDA-MB-231; experiment: Induction of apoptosis in human MDA-MB-231 cells assessed as late apoptotic cells at 50 ug/ml by Annexin V/PI staining based flow cytometric method (reference value: 0.92%); assay type: functional
[17] = test system: MDA-MB-231; experiment: Induction of apoptosis in human MDA-MB-231 cells assessed as live cells at 50 ug/ml by Annexin V/PI staining based flow cytometric method (reference value: 90.75%); assay type: functional
[18] = test system: MDA-MB-231; experiment: Inhibition of cell migration in human MDA-MB-231 cells assessed as scratch healing at 10 to 100 ug/ml incubated for 24 hrs by wound healing assay; assay type: functional; design: scale not given: the % may be the effect or the level left
[19] = test system: MDA-MB-231; experiment: Antimigratory activity in human MDA-MB-231 cells assessed as induction of slow cell migration at 100 ug/ml incubated up to 24 hrs by wound healing assay; assay type: functional, cell-based
[20] = test system: MDA-MB-231; experiment: Induction of apoptosis in human MDA-MB-231 cells assessed as early apoptotic cells at 50 ug/ml by Annexin V/PI staining based flow cytometric method (reference value: 0.54%); assay type: functional
[21] = test system: MDA-MB-231; experiment: Induction of apoptosis in human MDA-MB-231 cells assessed as early apoptotic cells at 100 ug/ml by Annexin V/PI staining based flow cytometric method (reference value: 0.54%); assay type: functional
[22] = test system: MDA-MB-231; experiment: Inhibition of colony formation in human MDA-MB-231 cells at 50 to 100 ug/ml incubated for 10 days; assay type: functional, cell-based
[23] = test system: MDA-MB-231; experiment: Effect on MMP7 protein expression in human MDA-MB-231 cells; assay type: functional, cell-based

`CC(C)C[C@H](NC(=O)[C@@H](O)[C@H](N)Cc1ccccc1)C(=O)O` [UBENIMEX] was tested. Which Activity [1] did it give?
Its Activity is “Toxic”.

And the Activity [2]?
Its Activity is “Active”.

And the inhibition [3]?
Its inhibition is “Active”.

With `CC[C@H](C)[C@H](NC(=O)[C@@H](NC(=O)[C@@H](O)[C@H](N)Cc1ccccc1)C(C)C)C(=O)O` as the compound, how does the inhibition [4] read?
The inhibition was “Dose-dependent effect”.

And the Activity [5]?
Its Activity is “inactive”.

And the Activity [6]?
The Activity was “inactive”.

And the Activity [7]?
The Activity was “inactive”.

And the Activity [8]?
The Activity was 0.75%.

And the Activity [9]?
Its Activity is 8.51%.

What about the Activity [10] of the same compound?
Its Activity is 89.5%.

And the Activity [11]?
The Activity was “<= 20%”.

And the Activity [12]?
The Activity was “Active”.

And the Activity [13]?
Its Activity is “inactive”.

What about the Activity [14] of the same compound?
The Activity was 9.05%.

What about the inhibition [15] of the same compound?
Its inhibition is > 50%.

And the Activity [16]?
The Activity was 0.77%.

What about the Activity [17] of the same compound?
Its Activity is 89.98%.

And the Activity [2]?
The Activity was “Active”.

And the Activity [18]?
Its Activity is 50%.

What about the Activity [19] of the same compound?
The Activity was “Active”.

And the Activity [20]?
The Activity was 0.73%.

And the Activity [21]?
Its Activity is 0.71%.

And the inhibition [22]?
The inhibition was “Active”.

What about the Activity [23] of the same compound?
The Activity was “inactive”.
